Reference: ChEMBL document CHEMBL3638956, “Tetrahydro-pyrazolo[1,5-a]pyrido-pyrimidines as antagonists of serotonin 5-HT6 receptors, methods for the production and use thereof” (2013)

Biological target: 5-hydroxytryptamine receptor 6 (Homo sapiens, UniProt P50406)
Experiment: Competitive Binding Assay: Activity test of serotonin 5-HT6 receptor antagonists of the general formulas 1, 2 in the setting of competitive binding to serotonin 5-HT6 receptors.

Sequence of 5-hydroxytryptamine receptor 6 (P50406 whole entry): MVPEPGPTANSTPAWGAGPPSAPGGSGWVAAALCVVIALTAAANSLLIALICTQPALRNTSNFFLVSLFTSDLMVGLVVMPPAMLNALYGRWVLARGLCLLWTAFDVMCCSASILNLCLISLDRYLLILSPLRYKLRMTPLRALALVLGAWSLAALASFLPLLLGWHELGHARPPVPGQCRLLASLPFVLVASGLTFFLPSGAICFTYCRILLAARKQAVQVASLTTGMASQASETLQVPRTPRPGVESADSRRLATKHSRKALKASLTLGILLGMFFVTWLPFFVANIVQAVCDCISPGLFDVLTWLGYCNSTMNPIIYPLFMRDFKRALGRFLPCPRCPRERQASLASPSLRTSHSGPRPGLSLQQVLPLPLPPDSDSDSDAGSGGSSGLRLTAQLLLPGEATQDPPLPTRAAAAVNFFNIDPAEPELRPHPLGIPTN

Compared with `Cc1nn2c3c(cnc2c1S(=O)(=O)c1ccccc1)CNCC3`, `CSc1nn2c3c(c(C)nc2c1S(=O)(=O)c1ccccc1)CNCC3` is 3.6-fold higher in Ki: 2.14 nM for the first, 7.7 nM for the second. The first binds more tightly here.

In the case of `CSc1nn2c3c(cnc2c1S(=O)(=O)c1ccccc1)CN(C)CC3`, the Ki is reported as 35.7 nM.

Going from `Cc1nn2c3c(cnc2c1S(=O)(=O)c1ccccc1)CN(C)CC3` to `CSc1nn2c3c(cnc2c1S(=O)(=O)c1ccccc1)CN(C)CC3`, the IC50 rises from 13 nM to 76.9 nM (5.9-fold). The first is the more potent here.

For `CSc1nn2c3c(c(C)nc2c1S(=O)(=O)c1ccccc1)CNCC3`, the IC50 was 16.6 nM.
